Results as given in ChEMBL document CHEMBL3826961, “Lanostane triterpenoids from Ganoderma curtisii and their NO production inhibitory activities of LPS-induced microglia” (Bioorg Med Chem Lett, 2016).
pIC50: −log10 of the molar value.

Legend:
[1] = Antiinflammatory activity in mouse BV2 cells assessed as inhibition of LPS-induced NO production incubated for 24 hrs measured after 15 mins by Griess assay; type: functional, cell-based; conditions: BV-2
[2] = Cytotoxicity against LPS-induced mouse BV2 cells assessed as cell viability after 24 hrs by MTT assay; type: cell-based, BV-2; parameters: concentration or dose not given beside the values; conditions: read-out: Activity

SMILES	pIC50 [1]	viability at 24 h [2] [%]
CC(CC(=O)C[C@@H](C)[C@H]1C[C@H](O)[C@@]2(C)C3=C(C(=O)C[C@]12C)[C@@]1(C)CCC(=O)C(C)(C)[C@@H]1C[C@@H]3O)C(=O)O (stereo partly specified)	4.87	97.9
CC(=O)O[C@@H]1C(=O)C2=C(C(=O)C[C@H]3C(C)(C)[C@@H](O)CC[C@]23C)[C@]2(C)C(=O)C[C@H](/C(C)=C\C(=O)CC(C)C(=O)O)[C@@]12C (stereo partly specified)	4.98	95.1
CC(CC(=O)C[C@@H](C)[C@H]1C[C@H](O)[C@@]2(C)C3=C(C(=O)C[C@]12C)[C@@]1(C)CC[C@H](O)C(C)(C)[C@@H]1C[C@@H]3O)C(=O)O (stereo partly specified)	4.87	90.7
CC(CC(=O)C[C@@H](C)[C@H]1CC(=O)[C@@]2(C)C3=C(C(=O)[C@@H](O)[C@]12C)[C@@]1(C)CCC(=O)C(C)(C)[C@@H]1C[C@@H]3O)C(=O)O (stereo partly specified)	5.23	92.3
CC(CC(=O)C[C@@H](C)[C@H]1C[C@H](O)[C@@]2(C)C3=C(C(=O)C[C@]12C)[C@@]1(C)CC[C@H](O)[C@@](C)(CO)[C@@H]1C[C@@H]3O)C(=O)O (stereo partly specified)	5.38	97.8
CC(=O)O[C@@H]1C(=O)C2=C(C(=O)C[C@H]3C(C)(C)C(=O)CC[C@]23C)[C@]2(C)C(=O)C[C@H](/C(C)=C\C(=O)CC(C)C(=O)O)[C@@]12C (stereo partly specified)	4.55	94.3
C/C(=C/C(=O)CC(C)C(=O)O)[C@H]1CC(=O)[C@@]2(C)C3=C(C(=O)C[C@]12C)[C@@]1(C)CCC(=O)C(C)(C)[C@@H]1C[C@@H]3O (stereo partly specified)	4.86	96.5
C/C(=C/C(=O)CC(C)C(=O)O)[C@H]1CC(=O)[C@@]2(C)C3=C(C(=O)[C@@H](O)[C@]12C)[C@@]1(C)CC[C@H](O)C(C)(C)[C@@H]1CC3=O (stereo partly specified)	4.59	94.5
C/C(=C/C(=O)CC(C)C(=O)O)[C@H]1C[C@H](O)[C@@]2(C)C3=C(C(=O)C[C@]12C)[C@@]1(C)CCC(=O)C(C)(C)[C@@H]1C[C@@H]3O (stereo partly specified)	5.06	92.5
C/C(=C/C(=O)CC(C)C(=O)O)[C@H]1CC(=O)[C@@]2(C)C3=C(C(=O)[C@@H](O)[C@]12C)[C@@]1(C)CC[C@H](O)C(C)(C)[C@@H]1C[C@@H]3O (stereo partly specified)	5.02	93.5
CC(CC(=O)C[C@@H](C)[C@H]1C[C@H](O)[C@@]2(C)C3=C(C(=O)C[C@]12C)[C@@]1(C)CC[C@H](O)C(C)(C)[C@@H]1CC3=O)C(=O)O (stereo partly specified)	5.19	89.3
CC(CC(=O)C[C@](C)(O)[C@H]1CC(=O)[C@@]2(C)C3=C(C(=O)[C@@H](O)[C@]12C)[C@@]1(C)CC[C@H](O)C(C)(C)[C@@H]1C[C@@H]3O)C(=O)O (stereo partly specified)	4.67	96.3
C/C(=C/C(=O)CC(C)C(=O)O)[C@H]1C[C@H](O)[C@@]2(C)C3=C(C(=O)C[C@]12C)[C@@]1(C)CCC(=O)C(C)(C)[C@@H]1CC3 (stereo partly specified)	4.57	89.3
CC(CC(=O)C[C@@H](C)[C@H]1CC(=O)[C@@]2(C)C3=C(C(=O)C[C@]12C)[C@@]1(C)CCC(=O)C(C)(C)[C@@H]1CC3=O)C(=O)O (stereo partly specified)	5.03	97.5
CC(CC(=O)C[C@@H](C)[C@H]1CC(=O)[C@@]2(C)C3=C(C(=O)C[C@]12C)[C@@]1(C)CC[C@H](O)C(C)(C)[C@@H]1C[C@@H]3O)C(=O)O (stereo partly specified) [GANODERIC ACID B]	4.69	94.7
CC(CC(=O)C[C@@H](C)[C@H]1CC(=O)[C@@]2(C)C3=C(C(=O)[C@@H](O)[C@]12C)[C@@]1(C)CC[C@H](O)C(C)(C)[C@@H]1CC3=O)C(=O)O (stereo partly specified) [GANODERIC ACID C6]	4.81	91.6
CC(CC(=O)C[C@@H](C)[C@H]1CC(=O)[C@@]2(C)C3=C(C(=O)C[C@]12C)[C@@]1(C)CCC(=O)C(C)(C)[C@@H]1C[C@@H]3O)C(=O)O (stereo partly specified) [GANODERIC ACID D]	4.96	93.3
CC(=O)O[C@@H]1C(=O)C2=C(C(=O)C[C@H]3C(C)(C)C(=O)CC[C@]23C)[C@]2(C)C(=O)C[C@H]([C@H](C)CC(=O)CC(C)C(=O)O)[C@@]12C (stereo partly specified) [GANODERIC ACID F]	4.62	90.6
CC(CC(=O)C[C@@H](C)[C@H]1CC(=O)[C@@]2(C)C3=C(C(=O)[C@@H](O)[C@]12C)[C@@]1(C)CC[C@H](O)C(C)(C)[C@@H]1C[C@@H]3O)C(=O)O (stereo partly specified) [GANODERIC ACID G]	5.24	95.2
CC(=O)O[C@@H]1C(=O)C2=C(C(=O)C[C@H]3C(C)(C)[C@@H](O)CC[C@]23C)[C@]2(C)C(=O)C[C@H]([C@H](C)CC(=O)CC(C)C(=O)O)[C@@]12C (stereo partly specified) [GANODERIC ACID H]	4.90	90.4
CC(CC(=O)C[C@@H](C)[C@H]1C[C@H](O)[C@@]2(C)C3=C(C(=O)C[C@]12C)[C@@]1(C)CCC(=O)C(C)(C)[C@@H]1CC3=O)C(=O)O (stereo partly specified) [GANODERIC ACID J]	4.66	93.7
CC(=O)O[C@@H]1C(=O)C2=C([C@@H](O)C[C@H]3C(C)(C)[C@@H](O)CC[C@]23C)[C@]2(C)C(=O)C[C@H]([C@H](C)CC(=O)CC(C)C(=O)O)[C@@]12C (stereo partly specified) [GANODERIC ACID K]	5.44	98.5
C[C@H](CC[C@H](O)[C@](C)(O)CO)[C@H]1CC[C@@]2(C)C3=CC[C@H]4C(C)(C)C(=O)CC[C@]4(C)C3=CC[C@]12C [GANODERMANONTRIOL]	4.63	85.5
C/C(=C\CC[C@@H](C)[C@H]1CC[C@@]2(C)C3=CC[C@H]4C(C)(C)[C@@H](O)CC[C@]4(C)C3=CC[C@]12C)CO [GANODEROL B]	4.86	91.3
CC(CC(=O)C[C@@H](C)[C@H]1C[C@H](O)[C@@]2(C)C3=C(C(=O)C[C@]12C)[C@@]1(C)CCC(=O)C(C)(C)[C@@H]1CC3)C(=O)O (stereo partly specified) [GANOLUCIDIC ACID A]	4.60	95.2
COC(=O)C(C)CC(=O)C[C@@H](C)[C@H]1C[C@H](O)[C@@]2(C)C3=C(C(=O)C[C@]12C)[C@@]1(C)CCC(=O)C(C)(C)[C@@H]1C[C@@H]3O (stereo partly specified) [METHYL GANODERATE A]	5.10	91.3
COC(=O)CC[C@@H](C)[C@H]1CC(=O)[C@@]2(C)C3=C(C(=O)[C@@H](O)[C@]12C)[C@@]1(C)CC[C@H](O)C(C)(C)[C@@H]1CC3=O [METHYL LUCIDENATE L]	4.65	83.5
O=c1c(O)c(-c2ccc(O)c(O)c2)oc2cc(O)cc(O)c12 [QUERCETIN]	4.82	92.5
